Data published in patent US8575197B2, “Pyrolinone derivative and pharmaceutical composition comprising the same” (Shionogi & Co., Ltd., priority 2008, dated 2013).

Target: human P2X3 receptor (Homo sapiens (Human), UniProt P56373)
Test: P2X3 receptor inhibition, ATP-evoked Fluo-3 calcium fluorescence (FDSS 3000)
Type: cell-based
Settings: C6BU-1 cell transfected with human P2X3 receptor gene; ATP-evoked Fluo-3 fluorescence
Outline: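 C6BU-1 cells stably transfected with human P2X3, loaded with 4 μM Fluo-3-AM for 1 h at 37 °C in HEPES buffer pH 7.5 with probenecid. Compound added 5 min before 40 nM ATP solution; fluorescence followed 3 min. IC50 from ratio of peak post-ATP to baseline fluorescence.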

Chain of human P2X3 receptor (P56373 whole entry): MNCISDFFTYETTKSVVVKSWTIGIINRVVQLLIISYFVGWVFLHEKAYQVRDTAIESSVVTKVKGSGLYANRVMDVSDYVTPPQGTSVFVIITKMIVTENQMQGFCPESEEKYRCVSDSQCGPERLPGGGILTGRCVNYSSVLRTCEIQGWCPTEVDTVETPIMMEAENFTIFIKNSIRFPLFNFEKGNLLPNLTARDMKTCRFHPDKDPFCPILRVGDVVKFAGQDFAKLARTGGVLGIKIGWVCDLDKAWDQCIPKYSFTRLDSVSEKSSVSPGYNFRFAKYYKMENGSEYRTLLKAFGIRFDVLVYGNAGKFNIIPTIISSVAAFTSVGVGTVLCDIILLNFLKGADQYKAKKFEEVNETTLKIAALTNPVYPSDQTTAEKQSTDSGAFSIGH

| SMILES | IC50 [µM] |
| --- | --- |
| COc1ccccc1C1c2c(C(C)(C)C)nn(C(=O)OC(C)(C)C)c2C(=O)N1c1ccc(Br)cc1 (stereo not drawn) [II-211] | 0.135 |
| COc1ccccc1C1c2c(C(C)(C)C)n[nH]c2C(=O)N1c1ccc(-c2cccs2)cc1 (stereo not drawn) [II-213] | 0.011 |
| COc1ccccc1C1c2c(C(C)(C)CO)n[nH]c2C(=O)N1c1ccc(-c2ccco2)cc1 (stereo not drawn) [II-215] | 0.015 |
| COc1ccccc1C1c2c(C(C)(C)CO)n[nH]c2C(=O)N1c1ccc(-c2ccsc2)cc1 (stereo not drawn) [II-217] | 0.003 |
| COc1ncccc1C1c2c(C(C)(C)C)n[nH]c2C(=O)N1c1ccc(-c2ccoc2)cc1 (stereo not drawn) [II-220] | 0.069 |
| COc1ncccc1C1c2c(C(C)(C)C)n[nH]c2C(=O)N1c1ccc(-c2ccsc2)cc1 (stereo not drawn) [II-223] | 0.023 |
| CC(C)c1n[nH]c2c1C(c1ccccn1)N(c1ccc(-c3ccsc3)cc1)C2=O (stereo not drawn) [II-233] | 0.092 |
| CC(C)(CO)c1n[nH]c2c1C(c1ccccn1)N(c1ccc(-c3ccsc3)cc1)C2=O (stereo not drawn) [II-234] | 0.13 |
| COc1cc(N2C(=O)c3[nH]nc(C(C)C)c3C2c2ccccc2OC)ccc1-c1ccsc1 (stereo not drawn) [II-235] | 0.017 |
| CC(C)c1n[nH]c2c1C(c1ccccc1OC(CO)CO)N(c1ccc(-c3ccsc3)cc1)C2=O (stereo not drawn) [II-236] | 0.005 |
| COc1ccccc1C1c2c(C(C)C)n[nH]c2C(=O)N1c1ccc(-c2ccsc2)c(F)c1 (stereo not drawn) [II-238] | 0.019 |
| COc1ccccc1C1c2c(C(C)C)n[nH]c2C(=O)N1c1ccc(-c2ccsc2)c(C)c1 (stereo not drawn) [II-239] | 0.205 |
| COc1ccccc1C1c2c(C(C)C)n[nH]c2C(=O)N1c1ccc(-c2ccsc2)c(N(C)C)c1 (stereo not drawn) [II-244] | 0.144 |
| COc1ccccc1C1c2c(C(C)(C)C)n[nH]c2C(=O)N1c1ccc(Br)cn1 (stereo not drawn) [II-246] | 0.871 |
| COc1ccccc1C1c2c(C(C)(C)C)n[nH]c2C(=O)N1c1ccc(-c2ccoc2)cn1 (stereo not drawn) [II-247] | 0.033 |
| COc1ccccc1C1c2c(C(C)(C)CO)n[nH]c2C(=O)N1c1ccc(-c2ccoc2)cn1 (stereo not drawn) [II-250] | 0.043 |
| COc1ccccc1C1c2c(C(C)(C)CO)n[nH]c2C(=O)N1c1ccc(-c2ccsc2)cn1 (stereo not drawn) [II-251] | 0.008 |
| COc1ccccc1C1c2c(C(C)(C)C)n[nH]c2C(=O)N1c1ccc(-c2ccsc2)nc1 (stereo not drawn) [II-254] | 0.002 |

| SMILES | IC50 [µM] |
| --- | --- |
| COc1ccccc1C1c2c(C(C)(C)C)n[nH]c2C(=O)N1c1ccc(-c2cccs2)nc1 (stereo not drawn) [II-255] | 0.003 |
| COc1ccccc1C1c2c(C(C)(C)C)n[nH]c2C(=O)N1c1ccc(-c2cccs2)cn1 (stereo not drawn) [II-256] | 0.018 |
| COc1ccccc1C1c2c(C(C)(C)C)n[nH]c2C(=O)N1c1ccc(-c2ccco2)cn1 (stereo not drawn) [II-257] | 0.033 |
| COc1ccccc1C1c2c(C(C)(CO)CO)n[nH]c2C(=O)N1c1ccc(-c2ccon2)cc1 (stereo not drawn) [II-258] | 0.304 |
| COc1ncccc1C1c2c(C(C)(C)C)n[nH]c2C(=O)N1c1ccc(Br)cn1 (stereo not drawn) [II-259] | 0.41 |
| COc1ncccc1C1c2c(C(C)(C)C)n[nH]c2C(=O)N1c1ccc(-c2cccs2)cn1 (stereo not drawn) [II-260] | 0.036 |
| COc1ncccc1C1c2c(C(C)(C)C)n[nH]c2C(=O)N1c1ccc(-c2ccco2)cn1 (stereo not drawn) [II-263] | 0.108 |
| COc1ccccc1C1c2c(C(C)(C)CO)n[nH]c2C(=O)N1c1ccc(-c2cccs2)cn1 (stereo not drawn) [II-264] | 0.011 |
| COc1ccccc1C1c2c(C(C)(C)CO)n[nH]c2C(=O)N1c1ccc(-c2ccco2)cn1 (stereo not drawn) [II-265] | 0.031 |
| COc1ncccc1C1c2c(C(C)(C)C)n[nH]c2C(=O)N1c1ccc(-c2cccs2)nc1 (stereo not drawn) [II-270] | 0.025 |
| COc1ncccc1C1c2c(C(C)(C)C)n[nH]c2C(=O)N1c1ccc(-c2ccco2)nc1 (stereo not drawn) [II-271] | 0.153 |
| COc1ccccc1C1c2c(C(C)(C)C)n[nH]c2C(=O)N1c1ccc(-c2ccsc2Cl)cc1 (stereo not drawn) [II-272] | 0.392 |
| COc1ccccc1C1c2c(C(C)(C)C)n[nH]c2C(=O)N1c1ccc(-c2csc(C)c2)cc1 (stereo not drawn) [II-274] | 0.019 |
| COCCOCc1ncccc1C1c2c(C(C)(C)C)n[nH]c2C(=O)N1c1ccc(-c2ccsc2)cc1 (stereo not drawn) [II-277] | 0.274 |
| COCCOc1ncccc1C1c2c(C(C)C)n[nH]c2C(=O)N1c1ccc(-c2ccsc2)cc1 (stereo not drawn) [II-278] | 0.013 |
| COCCOc1ncccc1C1c2c(C(C)C)n[nH]c2C(=O)N1c1ccc(-c2ccon2)cc1 (stereo not drawn) [II-279] | 0.378 |
| COCCOc1ncccc1C1c2c(C(C)C)n[nH]c2C(=O)N1c1ccc(-c2noc(C)n2)cc1 (stereo not drawn) [II-280] | 0.244 |
| COCCOc1ncccc1C1c2c(n[nH]c2C(C)C)C(=O)N1c1ccc(-c2nc(C)no2)cc1 (stereo not drawn) [II-281] | 0.664 |

More lines, now with the values ahead:

| IC50 [µM] | SMILES |
| --- | --- |
| 0.811 | COc1ccccc1C1c2c(C(C)(C)C)n[nH]c2C(=O)N1c1ccc(-c2cccn2C)cc1 (stereo not drawn) [II-205] |
| 0.112 | COc1ccccc1C1c2c(C(C)(C)C)n[nH]c2C(=O)N1c1ccc(-c2ccccc2)cc1 (stereo not drawn) [II-208] |
| 0.087 | COc1ccccc1C1c2c(C(C)(C)C)n[nH]c2C(=O)N1c1ccc(-c2ncco2)cc1 (stereo not drawn) [II-209] |
| 0.005 | COc1ccccc1C1c2c(C(C)(C)CO)n[nH]c2C(=O)N1c1ccc(-c2cccs2)cc1 (stereo not drawn) [II-218] |
| 0.014 | COc1ccccc1C1c2c(C(C)(C)CO)n[nH]c2C(=O)N1c1ccc(-c2ccoc2)cc1 (stereo not drawn) [II-219] |
| 0.031 | COc1ncccc1C1c2c(C(C)(C)C)n[nH]c2C(=O)N1c1ccc(-c2cccs2)cc1 (stereo not drawn) [II-224] |
| 0.979 | COc1ccc(-c2n[nH]c3c2C(c2ccccc2OC)N(CCc2ccco2)C3=O)cc1 (stereo not drawn) [II-225] |
| 0.082 | COC(=O)n1nc(C(C)(C)C)c2c1C(=O)N(c1ccc(Br)cc1)C2c1ccccc1OC (stereo not drawn) [II-229] |
| 0.344 | COc1ccc(-c2n[nH]c3c2C(c2ccccc2OC)N(CCCc2ccco2)C3=O)cc1 (stereo not drawn) [II-231] |
| 0.016 | COc1ccccc1C1c2c(C(C)(C)CO)n[nH]c2C(=O)N1c1ccc(-c2cc[nH]c2)cc1 (stereo not drawn) [II-232] |
| 0.853 | COc1ccccc1C1c2c(C(C)C)n[nH]c2C(=O)N1c1ccc(-c2ccsc2)c(NC(C)=O)c1 (stereo not drawn) [II-237] |
| 0.116 | COc1ccccc1C1c2c(C(C)C)n[nH]c2C(=O)N1c1ccc(-c2ccsc2)c(N)c1 (stereo not drawn) [II-240] |
| 0.213 | COC(=O)c1cc(N2C(=O)c3[nH]nc(C(C)C)c3C2c2ccccc2OC)ccc1-c1ccsc1 (stereo not drawn) [II-241] |
| 0.152 | COc1ccccc1C1c2c(C(C)C)n[nH]c2C(=O)N1c1ccc(-c2ccsc2)c(C(N)=O)c1 (stereo not drawn) [II-242] |
| 0.138 | COc1ccccc1C1c2c(C(C)C)n[nH]c2C(=O)N1c1ccc(-c2ccsc2)c(CO)c1 (stereo not drawn) [II-243] |
| 0.006 | CC(C)c1n[nH]c2c1C(c1ccccc1OCCS(C)(=O)=O)N(c1ccc(-c3ccsc3)cc1)C2=O (stereo not drawn) [II-245] |
| 0.013 | COc1ccccc1C1c2c(C(C)(C)C)n[nH]c2C(=O)N1c1ccc(-c2ccsc2)cn1 (stereo not drawn) [II-248] |
| 0.02 | COc1ccccc1C1c2c(C(C)(C)C)n[nH]c2C(=O)N1c1ccc(-c2ccoc2)nc1 (stereo not drawn) [II-253] |
| 0.14 | COc1ncccc1C1c2c(C(C)(C)C)n[nH]c2C(=O)N1c1ccc(-c2ccoc2)cn1 (stereo not drawn) [II-261] |
| 0.039 | COc1ncccc1C1c2c(C(C)(C)C)n[nH]c2C(=O)N1c1ccc(-c2ccsc2)cn1 (stereo not drawn) [II-262] |
| 0.007 | COc1ccccc1C1c2c(C(C)(CO)CO)n[nH]c2C(=O)N1c1ccc(-c2ccsc2)cc1 (stereo not drawn) [II-266] |
| 0.024 | COc1ncccc1C1c2c(C(C)(C)C)n[nH]c2C(=O)N1c1ccc(-c2ccsc2)nc1 (stereo not drawn) [II-268] |
| 0.363 | COc1ncccc1C1c2c(C(C)(C)C)n[nH]c2C(=O)N1c1ccc(-c2ccoc2)nc1 (stereo not drawn) [II-269] |
| 0.027 | COc1ccccc1C1c2c(C(C)(C)C)n[nH]c2C(=O)N1c1ccc(-c2ccc(C)s2)cc1 (stereo not drawn) [II-275] |
